What was measured:
Assay type in all cases: biochemical
[1] = biological target: T1, baculoviral GST-MLK1KD (Homo sapiens, UniProt P80192); assay: Mixed Lineage Kinase-1 inhibition assay (Millipore Multiscreen TCA in-plate, 32P); conditions: 1 uM compound; 60 μM ATP
T1 construct: 1 μg/ml of baculoviral GST-MLK1KD; GST (N); host or cells: baculovirus expression system
Procedure: Inhibition of Mixed Lineage Kinase-1 Activity
The kinase activity of MLK1 was assessed using the Millipore Multiscreen TCA “in-plate” format as described for protein kinase C (Pitt & Lee, J. Biomol. Screening, 1: 47-51, 1996). Briefly, each 50-μl assay mixture contained 20 mM Hepes, pH 7.0, 1 mM EGTA, 10 mM MgCl2, 1 mM DTT, 25 mM β-glycerophosphate, 60 μM ATP, 0.25 μCi [γ-^32P]ATP, 0.1% BSA, 500 μg/ml myelin basic protein (UBI #13-104), 2% DMSO, 1 μM of test compound, and 1 μg/ml of baculoviral GST-MLK1KD. Samples were incubated for 15 min at 37° C. The reaction was stopped by adding ice cold 50% TCA and the protein were allowed to precipitate for 30 min at 4° C. The plates were then washed with ice cold 25% TCA. Supermix scintillation cocktail was added, and the plates were allowed to equilibrate for 1-2 hours prior to counting using the Wallac MicroBeta 1450 PLUS scintillation counter.

[2] = biological target: T2, recombinant human baculoviral VEGFR2 cyctoplasmic domain (Homo sapiens, UniProt P35968); assay: VEGFR2 kinase inhibition assay (ELISA-based, time-resolved fluorescence); conditions: 1 uM compound; 30 μM ATP
T2 construct: recombinant human baculoviral VEGFR2 cyctoplasmic domain; host or cells: baculovirus expression system
T2 sequence (P35968 786-1356 limits assumed): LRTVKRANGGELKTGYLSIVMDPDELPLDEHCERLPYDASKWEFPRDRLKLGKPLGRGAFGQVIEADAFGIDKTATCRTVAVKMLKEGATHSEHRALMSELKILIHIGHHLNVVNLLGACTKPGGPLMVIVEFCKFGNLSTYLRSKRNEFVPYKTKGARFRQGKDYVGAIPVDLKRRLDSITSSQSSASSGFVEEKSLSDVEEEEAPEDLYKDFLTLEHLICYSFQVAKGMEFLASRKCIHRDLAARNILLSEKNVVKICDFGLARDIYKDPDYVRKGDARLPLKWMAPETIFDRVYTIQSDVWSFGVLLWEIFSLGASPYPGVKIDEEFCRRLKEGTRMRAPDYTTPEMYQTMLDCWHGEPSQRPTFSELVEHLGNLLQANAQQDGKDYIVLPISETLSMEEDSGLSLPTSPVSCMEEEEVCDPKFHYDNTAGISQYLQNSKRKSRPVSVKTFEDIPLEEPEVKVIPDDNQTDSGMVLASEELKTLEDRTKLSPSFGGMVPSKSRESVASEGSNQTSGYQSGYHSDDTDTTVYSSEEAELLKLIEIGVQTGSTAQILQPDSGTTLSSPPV

[3] = biological target: T3, baculoviral GST-MLK2KDLZ (Homo sapiens, UniProt Q02779); assay: Mixed Lineage Kinase-2 inhibition assay (Millipore Multiscreen plate, 32P); conditions: 1 uM compound; 100 μM ATP
T3 construct: 3 μg/ml of baculoviral GST-MLK2KDLZ; GST (N); host or cells: baculovirus expression system
T3 sequence (Q02779 98-440 limits assumed): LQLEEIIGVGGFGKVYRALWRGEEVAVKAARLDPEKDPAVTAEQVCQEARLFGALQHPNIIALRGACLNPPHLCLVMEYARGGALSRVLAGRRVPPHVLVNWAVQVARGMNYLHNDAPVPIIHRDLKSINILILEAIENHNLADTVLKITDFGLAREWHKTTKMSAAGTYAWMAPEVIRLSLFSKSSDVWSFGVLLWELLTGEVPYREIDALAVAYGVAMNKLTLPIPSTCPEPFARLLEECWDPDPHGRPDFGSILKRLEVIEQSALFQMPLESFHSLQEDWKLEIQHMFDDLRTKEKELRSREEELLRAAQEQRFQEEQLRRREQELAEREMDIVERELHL
Procedure: Inhibition of Mixed Lineage Kinase-2 Activity
Assays were performed using the Millipore Multiscreen plate format as described for MLK1. Each 50-μl assay mixture contained 20 mM Hepes, pH 7, 1 mM EGTA, 10 mM MgCl2, 1 mM DTT, 25 mM β-glycerophosphate, 100 μM ATP, 0.25 μCi [γ-^32P]ATP, 0.1% BSA, 500 μg/ml myelin basic protein (UBI #13-104), 2% DMSO, various concentrations of test compound, and 3 μg/ml of baculoviral GST-MLK2KDLZ. Samples were incubated for 15 min. at 37° C. The reaction was stopped by adding ice cold 50% TCA and the proteins were allowed to precipitate for 30 min at 4° C. The plates were then washed with ice cold 25% TCA Supermix scintillation cocktail was added, and the plates were allowed to equilibrate for 1-2 hours prior to counting.

T1 sequence (P80192 144-412 limits assumed): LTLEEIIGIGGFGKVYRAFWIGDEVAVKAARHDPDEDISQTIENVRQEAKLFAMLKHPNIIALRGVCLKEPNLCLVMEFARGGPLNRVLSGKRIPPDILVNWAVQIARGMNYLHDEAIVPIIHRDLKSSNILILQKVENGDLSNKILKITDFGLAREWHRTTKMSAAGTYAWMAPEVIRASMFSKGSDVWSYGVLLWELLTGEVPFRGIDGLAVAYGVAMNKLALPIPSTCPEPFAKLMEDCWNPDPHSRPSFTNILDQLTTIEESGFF

O=C1NN=C(c2cccs2)C1=Cc1cn(Cc2ccccc2)c2ccccc12 [Compound 75]
MLK-1 Kinase % inhibition @ 1 uM [1]: 5%
VEGFR-2 kinase % inhibition @ 1 uM [2]: 32%
MLK-2 Kinase % inhibition @ 1 uM [3]: −5%

Reference: patent US6831075B2, “Heterocyclic substituted pyrazolones” (Cephalon, Inc., priority 1999, dated 2004)
